Experiments:
[1] = test system: Wistar rats showing proteinuria; experiment: Effect of treatment on proteinuria (urinary protein by sulfosalicylic acid turbidimetry) in BSA-injected rats; assay type: in vivo, rat; details: BSA 350 mg/kg i.v., intragastric twice daily, yeast compositions 1.0 ml/100 g, pednisone 0.25 mg/100 g
Protocol: (§1) The activated yeast compositions used in the following examples were prepared as described above, using Saccharomyces cerevisiae Hansen AS2.502, cultured in the presence of an alternating electric field having the electric field frequency and field strength exemplified in the parentheses following the recommended ranges listed in Section IV, supra. Control (i.e., untreated) yeast compositions were those prepared in the same manner as described in Section VI, supra, except that the yeast cells were cultured in the absence of EMFs. Unless otherwise specified, all compositions of interest were administered to the animals by intragastric feeding.
To test the ability of the activated yeast compositions to reduce the level of urinary protein, sixty healthy Wistar rats with average weight of about 200-220 g (4-7 months old, half of them male and the other half female) were chosen and males and females were kept in separate cages. […] Urine samples were collected from the fine cancellated base of metabolic cages, and the amount of protein in the samples was determined by […]. […]
The amount of urinary protein was determined by sulfosalicylic acid turbidimetry. The volume of each urine sample was first measured (ml). […] Ten minutes later, the absorption of the sample test tube was measured at 620 nm against the control tube. […]

[2] = test system: Wistar rats showing proteinuria; experiment: Effect of treatment on serum protein (biuret method) in BSA-injected rats; assay type: in vivo, rat; details: Wistar rats prepared as in Example 1; intragastric twice daily for six weeks; yeast compositions 1.0 ml/100 g, pednisone 0.2 mg/100 g
Protocol: as §1, with “feeding. […]” for “feeding.”
Subsequently, a composition of interest was administered twice daily to each of the four groups of rats for six weeks. […] The amount of protein in the supernatant (serum protein) was determined.
To determine the amount of serum protein, 50 μl of the supernatant and standard serum protein were added into two separate tubes. […] The mixtures were placed in water bath at 37° C. for 10 minutes and measured for absorption at 546 nm. The concentration of serum protein was calculated according to the following formula: [Serum Protein]=[absorption for the testing sample/absorption for the standard]×[standard serum protein](g/dl).

C[C@]12C=CC(=O)C=C1CC[C@@H]1[C@@H]2C(=O)C[C@@]2(C)[C@H]1CC[C@]2(O)C(=O)CO [Pednisone, pednisone (metacortandiacin)]
Urinary Protein (mg in 100 ml urine sample) in a 24-hour Period, 8-Week Treatment ([1]; last day of eighth week): 4.22 ± 1.34 mg in 100 ml urine sample | Urinary Protein (mg in 100 ml urine sample) in a 24-hour Period, 4-Week Treatment ([1]; last day of fourth week): 4.57 ± 1.42 mg in 100 ml urine sample | Serum Protein [2]: 6.41 ± 3.32 g/dL

From patent US20050106168A1, “Methods and compositions for treating nephrotic syndrome” (priority 2003, published 2005)
